In ChEMBL document CHEMBL4251642 (Eur J Med Chem, 2018):
pEC50, pIC50: −log10 of the molar value. Active and inactive are the calls of the source. The rule behind the calls is not given here.

What was measured:
Influenza A virus [1] = experiment: Antiviral activity against Influenza A virus (A/WSN/1933(H1N1)) infected in BALB/c mouse assessed as mouse survival at 0.96 umol/day, po for 5 consecutive days measured on day 14 post dose; format: functional
Influenza A virus [2] = experiment: Antiviral activity against Influenza A virus (A/WSN/1933(H1N1)) infected in MDCK cells assessed as inhibition of virus-induced cytopathic effect after 48 hrs by CellTiter96 Aqueous non-radioactive cell proliferation assay; format: functional, organism-based
[3] = biological target: Neuraminidase (Influenza A virus (strain A/Wilson-Smith/1933 H1N1) (Influenza A virus(strain A/WS/1933 H1N1)), UniProt P03470)
[4] = Cytotoxicity against MDCK cells after 48 hrs by CellTiter96 Aqueous non-radioactive cell proliferation assay; format: cell-based, Canis lupus familiaris; conditions: dog
[5] = Drug level in rabbit serum treated with (1S,2S,3R,4R)-3-[(S)-1-Acetamido-2-ethylbutyl]-2-[[3-((E)-3-(3,4-dihydroxyphenyl)acryloyloxy)propyl]carbamoyloxy]-4-guanidinocyclopentane-1-carboxylic acid at 37 degC after 24 hrs by HPLC-ESI-MS analysis; format: ADME, cell-free, Oryctolagus cuniculus
[6] = biological target: Neuraminidase (Influenza A virus (strain A/Wilson-Smith/1933 H1N1) (Influenza A virus(strain A/WS/1933 H1N1)), UniProt P03470); remark: listed apart in the source
[7] = biological target: Neuraminidase (Influenza A virus (A/Memphis/1/1971(H3N2)), UniProt P03471); format: cell-based, Influenza A virus (A/Brisbane/10/2007(H3N2)), HEK293
Influenza A virus [8] = experiment: Antiviral activity against Influenza A virus (A/WSN/1933(H1N1)) infected in BALB/c mouse assessed as mouse survival at 0.72 umol/day, po for 5 consecutive days measured on day 14 post dose; format: functional, organism-based
[9] = Drug metabolism in rabbit serum assessed as 3-[(1S,2R,3R,5S)-2-[(S)-1-acetamido-2-ethylbutyl]-5-carboxy-3-guanidinocyclopentoxycarbonyl]aminopropan-1-aminium trifluoroacetate formation at 37 degC after 24 hrs by HPLC-ESI-MS analysis; format: ADME, cell-free, Oryctolagus cuniculus
[10] = Drug metabolism in rabbit serum assessed as (1S,2S,3R,4R)-3-[(S)-1-acetamido-2-ethylbutyl]-4-guanidino-2-[(3-hydroxypropyl)carbamoyloxy]cyclopentane-1-carboxylic acid formation at 37 degC after 24 hrs by HPLC-ESI-MS analysis; format: ADME, cell-free, Oryctolagus cuniculus
[11] = Stability in rabbit serum at 37 degC after 24 hrs by HPLC-ESI-MS analysis; format: ADME, cell-free, Oryctolagus cuniculus

Neuraminidase (Influenza A virus (strain A/Wilson-Smith/1933 H1N1) (Influenza A virus(strain A/WS/1933 H1N1)), UniProt P03470), sequence (P03470 whole entry): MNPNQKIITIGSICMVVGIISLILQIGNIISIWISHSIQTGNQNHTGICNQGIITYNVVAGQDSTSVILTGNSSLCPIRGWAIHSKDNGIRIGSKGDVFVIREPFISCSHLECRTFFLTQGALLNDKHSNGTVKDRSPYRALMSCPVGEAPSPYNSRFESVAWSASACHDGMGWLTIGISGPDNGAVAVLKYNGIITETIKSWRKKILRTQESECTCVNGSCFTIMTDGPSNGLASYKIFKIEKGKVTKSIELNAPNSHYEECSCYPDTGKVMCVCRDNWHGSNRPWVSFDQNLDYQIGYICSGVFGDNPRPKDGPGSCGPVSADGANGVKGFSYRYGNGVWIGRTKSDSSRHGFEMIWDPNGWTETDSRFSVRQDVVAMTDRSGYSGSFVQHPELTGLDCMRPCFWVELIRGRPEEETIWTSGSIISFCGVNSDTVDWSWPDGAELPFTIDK
Neuraminidase (Influenza A virus (A/Memphis/1/1971(H3N2)), UniProt P03471), sequence (P03471 whole entry): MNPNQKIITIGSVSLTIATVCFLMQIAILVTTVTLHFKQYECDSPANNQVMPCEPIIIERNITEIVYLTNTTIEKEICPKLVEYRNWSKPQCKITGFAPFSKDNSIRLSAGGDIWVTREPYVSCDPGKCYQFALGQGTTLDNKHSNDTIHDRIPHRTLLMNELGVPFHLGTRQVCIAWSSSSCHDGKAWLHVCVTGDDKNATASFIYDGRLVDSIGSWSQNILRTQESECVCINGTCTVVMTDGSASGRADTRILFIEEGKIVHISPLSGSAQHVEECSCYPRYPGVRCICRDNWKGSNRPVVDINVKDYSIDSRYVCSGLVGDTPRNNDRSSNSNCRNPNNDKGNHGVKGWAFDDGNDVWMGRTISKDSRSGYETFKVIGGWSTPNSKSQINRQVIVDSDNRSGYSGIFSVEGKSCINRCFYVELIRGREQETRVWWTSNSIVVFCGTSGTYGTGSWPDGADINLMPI

CCC(CC)[C@H](NC(C)=O)[C@@H]1[C@H](OC(=O)NCCCOCCCc2ccc(O)c(O)c2)[C@@H](C(=O)O)C[C@H]1NC(=N)N
Survival (Influenza A virus [1]): 50% | pEC50 (Influenza A virus [2]): 8.46 | pIC50 [3]: 9.17 | CC50 at 48 h [4]: > 100000 nM

CCC(CC)[C@H](NC(C)=O)[C@@H]1[C@H](OC(=O)NCCCO)[C@@H](C(=O)O)C[C@H]1NC(=N)N
Drug uptake [5]: 26% | pEC50 (Influenza A virus [2]): 8.65 | pIC50 [3]: 9.19 | CC50 at 48 h [4]: > 100000 nM

CCC(CC)OC1C=C(C(=O)O)C[C@H](N)[C@H]1NC(C)=O (some centres undefined)
pEC50 (Influenza A virus [2]): 7.78 | CC50 at 48 h [4]: > 100000 nM

CCOC(=O)C1=C[C@@H](OC(CC)CC)[C@H](NC(C)=O)[C@@H](N)C1 [OSELTAMIVIR]
Activity (Influenza A virus [1]): Active

CCC(CC)[C@H](NC(C)=O)[C@@H]1[C@H](O)[C@@H](C(=O)O)C[C@H]1NC(=N)N [PERAMIVIR ANHYDROUS]
pEC50 (Influenza A virus [2]): 8.18 | pIC50 [6]: 9.40 | pIC50 [7]: 8.70 | pIC50 [3]: 9.32 | CC50 at 48 h [4]: > 100000 nM

CCC(CC)[C@H](NC(C)=O)[C@@H]1[C@H](OC(=O)NCCCOC(=O)/C=C/c2ccc(O)c(O)c2)[C@@H](C(=O)O)C[C@H]1NC(=N)N
pEC50 (Influenza A virus [2]): 8.77 | Activity (Influenza A virus [8]): Active | pIC50 [6]: 9.05 | pIC50 [7]: 7.57 | pIC50 [3]: 8.98 | CC50 at 48 h [4]: > 100000 nM

CCC(CC)[C@H](NC(C)=O)[C@@H]1[C@H](OC(=O)NCCCNC(=O)/C=C/c2ccc(O)c(O)c2)[C@@H](C(=O)O)C[C@H]1NC(=N)N
Survival (Influenza A virus [1]): 100% | Drug metabolism [9]: Metabolite_Notdetected | pEC50 (Influenza A virus [2]): 8.81 | Activity (Influenza A virus [8]): Active | pIC50 [6]: 8.74 | Drug metabolism [10]: Metabolite_Detected | pIC50 [3]: 9.36 | CC50 at 48 h [4]: > 100000 nM | Stability [11]: Stable

CCC(CC)[C@H](NC(C)=O)[C@@H]1[C@H](OC(=O)NCCCN)[C@@H](C(=O)O)C[C@H]1NC(=N)N
pEC50 (Influenza A virus [2]): 8.59 | pIC50 [3]: 9.03 | CC50 at 48 h [4]: > 100000 nM
